According to publication PMC10977697 (PLOS ONE, 2024):
Read-outs that look alike come from different tables or passages of the source. Where a SMILES comes first, the peptide text is derived from it. Bridges are numbered along the chain shown (N, C = ends). Where no end group is shown, it is not given here.

Tests used:
HtrA1 FL = target: T1, HtrA1 FL (Homo sapiens, UniProt Q92743); assay type: binding; conditions: read-out: Kd(μM) SPR
T1 construct: HtrA1 (Q23-P480, 5654, Tni Baculovirus); made in house; host or cells: Trichoplusia ni (Tni) cells, baculovirus

HtrA1 = assay type: binding, human; conditions: ratio of signal for target protein over BSA background
Notch2Long = assay: Spot phage ELISA, Notch2Long; assay type: binding, human; conditions: for ELISA: spot phage ELISA signal
Her3-Fc = target: T2, Her3-Fc (Homo sapiens, UniProt P21860); assay: Spot phage ELISA, Her3-Fc; assay type: binding; conditions: for S/N: ratio of signal for target protein over BSA background; for ELISA: spot phage ELISA signal, DCP displayed on M13 p8
T2 construct: purchased R&D 348-RB

HGFA = assay: Spot phage ELISA, HGFA; assay type: binding, human; conditions: for S/N: ratio of signal for target protein over BSA background, S/N > 2 positive; for ELISA: spot phage ELISA signal, DCP displayed on M13 p8, phage supernatant 1:3 in PBT, anti-M13-HRP, TMB
R-spondin = assay: Spot phage ELISA, R-spondin; assay type: binding, human; conditions: for S/N: ratio of signal for target protein over BSA background; for ELISA: spot phage ELISA signal, DCP displayed on M13 p8
trypsin = assay: Phage ELISA of displayed DCPs on immobilized trypsin; conditions: DCP displayed on M13 p3 or p8, phage ELISA on trypsin-coated plates (Fig 1)
Description: The DCPs, incorporating an N-terminal gD-tag for quantification of display levels, were fused at the C-terminal to the major M13 coat protein p8 or the C-terminal domain of minor coat protein p3 (Fig 1A).
The display level was analyzed using phage ELISA described previously [47].

CD28-Fc = assay: Spot phage ELISA, CD28-Fc; assay type: binding; conditions: for ELISA: spot phage ELISA signal of phage-displayed DCP clone on CD28-Fc; for S/N: spot phage ELISA signal-to-noise on CD28-Fc

T2 sequence (P21860 20-643 limits assumed): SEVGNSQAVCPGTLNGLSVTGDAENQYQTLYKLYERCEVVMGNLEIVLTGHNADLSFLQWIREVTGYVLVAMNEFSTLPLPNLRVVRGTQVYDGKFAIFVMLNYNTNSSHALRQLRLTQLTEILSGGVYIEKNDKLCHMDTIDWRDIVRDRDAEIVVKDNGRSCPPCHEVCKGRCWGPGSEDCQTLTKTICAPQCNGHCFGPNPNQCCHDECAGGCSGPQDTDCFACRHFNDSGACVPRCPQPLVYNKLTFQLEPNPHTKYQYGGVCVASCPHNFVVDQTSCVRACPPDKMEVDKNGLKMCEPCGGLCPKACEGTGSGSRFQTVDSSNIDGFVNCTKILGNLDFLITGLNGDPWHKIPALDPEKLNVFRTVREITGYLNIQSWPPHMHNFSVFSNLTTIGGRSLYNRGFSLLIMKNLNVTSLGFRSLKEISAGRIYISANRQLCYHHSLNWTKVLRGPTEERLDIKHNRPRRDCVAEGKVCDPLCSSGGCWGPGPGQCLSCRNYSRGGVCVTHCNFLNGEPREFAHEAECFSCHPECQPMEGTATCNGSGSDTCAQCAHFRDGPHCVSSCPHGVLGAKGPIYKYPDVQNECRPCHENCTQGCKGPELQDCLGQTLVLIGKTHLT
T1 sequence (Q92743 23-480): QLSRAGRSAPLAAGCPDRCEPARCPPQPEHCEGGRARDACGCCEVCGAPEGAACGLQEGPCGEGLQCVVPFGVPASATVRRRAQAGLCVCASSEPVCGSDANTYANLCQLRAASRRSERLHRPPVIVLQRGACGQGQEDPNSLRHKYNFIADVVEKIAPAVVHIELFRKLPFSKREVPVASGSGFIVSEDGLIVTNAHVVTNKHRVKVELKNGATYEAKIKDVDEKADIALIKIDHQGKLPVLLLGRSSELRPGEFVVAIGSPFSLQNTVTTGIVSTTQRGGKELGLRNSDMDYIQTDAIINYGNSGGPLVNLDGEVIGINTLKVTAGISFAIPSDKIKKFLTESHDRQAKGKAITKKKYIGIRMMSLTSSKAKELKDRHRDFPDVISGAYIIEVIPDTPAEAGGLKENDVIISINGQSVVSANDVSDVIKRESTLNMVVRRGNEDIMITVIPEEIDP

In the case of CC[C@H](C)[C@@H]1NC(=O)[C@H](Cc2ccccc2)NC(=O)[C@H](Cc2ccc(O)cc2)NC(=O)[C@H](C(C)C)NC(=O)[C@H](CCSC)NC(=O)[C@H](C(C)C)NC(=O)[C@@H]2CSSC[C@H](NC(=O)[C@H](CC(=O)O)NC(=O)[C@H](Cc3ccccc3)NC(=O)[C@H](C)N)C(=O)N[C@@H](CC(C)C)C(=O)NCC(=O)N[C@@H](CCC(N)=O)C(=O)N[C@H]3CSSC[C@H](NC(=O)[C@H](Cc4ccc(O)cc4)NC(=O)[C@@H]4CCCN4C(=O)[C@H](CCCCN)NC(=O)[C@H]([C@@H](C)O)NC(=O)[C@H](CCSC)NC(=O)[C@H](Cc4c[nH]cn4)NC1=O)C(=O)N[C@@H](CC(N)=O)C(=O)N[C@@H](CO)C(=O)N[C@@H](CO)C(=O)N[C@H](C(=O)N[C@H](C(=O)N[C@@H](CCCNC(=N)N)C(=O)O)[C@@H](C)O)CSSC[C@H](NC(=O)[C@H](CCCNC(=N)N)NC(=O)CNC3=O)C(=O)N[C@@H](CC(=O)O)C(=O)N[C@@H](Cc1ccccc1)C(=O)N[C@@H](Cc1c[nH]cn1)C(=O)N[C@@H](CCCCN)C(=O)N[C@@H](CC(C)C)C(=O)N[C@@H](CCC(N)=O)C(=O)N2 [HtrA1_AVR61] (HELM PEPTIDE1{A.F.D.C.L.G.Q.C.G.R.C.D.F.H.K.L.Q.C.V.M.V.Y.F.I.H.M.T.K.P.Y.C.N.S.S.C.T.R}$PEPTIDE1,PEPTIDE1,4:R3-18:R3|PEPTIDE1,PEPTIDE1,8:R3-31:R3|PEPTIDE1,PEPTIDE1,11:R3-35:R3$$$V2.0; N-terminus and C-terminus assumed), the Kd (HtrA1 FL; Biacore S200, 25°C, biotinylated HtrA1 FL on chip SA, 10 mM HEPES (8.0), 200mM NaCl, 0.25% CHAPS, 5% DMSO, steady state fitting, n/d = no binding) is reported as greater than 20 µM and the S/N (HtrA1) is reported as 24.4.
With CC[C@H](C)[C@@H]1NC(=O)[C@@H]2CCCN2C(=O)[C@H](CCC(=O)O)NC(=O)[C@@H]2CSSC[C@@H]3NC(=O)[C@H](Cc4c[nH]cn4)NC(=O)[C@H](Cc4c[nH]c5ccccc45)NC(=O)[C@H](CC(C)C)NC(=O)[C@H]([C@@H](C)O)NC(=O)[C@H](Cc4c[nH]c5ccccc45)NC(=O)CNC(=O)[C@@H](NC(=O)CN)CSSC[C@H](NC(=O)CNC(=O)[C@H](C)NC(=O)[C@H](CC(C)C)NC(=O)[C@H](CSSC[C@@H](C(=O)NCC(=O)O)NC(=O)[C@H](Cc4c[nH]c5ccccc45)NC(=O)[C@H](Cc4c[nH]c5ccccc45)NC1=O)NC(=O)[C@H](CC(=O)O)NC(=O)[C@H](CO)NC(=O)[C@H](CC(=O)O)NC(=O)[C@H](CCC(N)=O)NC(=O)[C@H](CCCCN)NC3=O)C(=O)N[C@@H](C(C)C)C(=O)N2 [N2L-EET-03] (HELM PEPTIDE1{G.C.G.W.T.L.W.H.C.K.Q.D.S.D.C.L.A.G.C.V.C.E.P.I.W.W.C.G}$PEPTIDE1,PEPTIDE1,2:R3-19:R3|PEPTIDE1,PEPTIDE1,9:R3-21:R3|PEPTIDE1,PEPTIDE1,15:R3-27:R3$$$V2.0; N-terminus and C-terminus assumed) the “s/n ratio” value (Notch2Long; Table 3, affinity maturation clones, signal over BSA background) was 3.1, the ELISA (Notch2Long; Table 3, affinity maturation clones, display (p8 or p3) not given per clone) was 0.4 and the S/N (Notch2Long; initial hits, ratio of signal for target protein over BSA background) was 3.1. The ELISA (Notch2Long; initial hits, DCP displayed on M13 p8) was 0.35.
“AFDCLGQCVPYVLSPYCNSSCTR [Her3-Fc AVR9 6]” gave a S/N (Her3-Fc) of 24.2 and an ELISA (Her3-Fc) of 1.56.
“GCAESQHWWLWGCKQDSDCLAGCVCGPNGFCG (also: bicyclic or more (positions not given here)) [HGFA EET I-II 31]” was tested, and the S/N (HGFA) was 22.4 and the ELISA (HGFA) was 1.95.
Work on “GCALSIHWWLWPCKQDSDCLAGCVCGPNGFCG (also: bicyclic or more (positions not given here)) [HGFA EET I-II 20]” yielded a S/N (HGFA) of 13.5 and an ELISA (HGFA) of 1.93.
Molecule “GCDLDLDWIWHECKQDSDCLAGCVCHQGNFCG (also: bicyclic or more (positions not given here)) [Her3-Fc EET I-II 9]” has a S/N (Her3-Fc) of 25.7 and an ELISA (Her3-Fc) of 1.44.
“GCDPWIWQEWGVCKQDSDCLAGCVCGPNGFCG (also: bicyclic or more (positions not given here)) [R-spondin EETI-II 47]” was tested, and the S/N (R-spondin) was 13.7 and the ELISA (R-spondin) was 1.06.
With “GCEWDWWFDQWICKQDSDCLAGCVCGPNGFCG (also: bicyclic or more (positions not given here)) [HGFA EET I-II 16]” the S/N (HGFA) was 14.5 and the ELISA (HGFA) was 1.92.
“GCHPDPWWCKQDSDCLARWCG [Her3-Fc EET I-II 37]” showed a S/N (Her3-Fc) of 43.4 and an ELISA (Her3-Fc) of 3.17.
In the case of “GCISKWFSCKQDSDCLAGCVCLLWQDCG (also: bicyclic or more (positions not given here)) [Her3-Fc EET I-II 67]”, the S/N (Her3-Fc) is reported as 20.1 and the ELISA (Her3-Fc) is reported as 1.54.
For “GCLASHPWWSVWCKQDSDCLAGCVCQEMGICG (also: bicyclic or more (positions not given here)) [R-spondin EETI-II 31]”, the S/N (R-spondin) was 11.4 and the ELISA (R-spondin) was 0.72.
“GCMNWGTFCKQDSDCLAGCVCALFGVCG (also: bicyclic or more (positions not given here)) [Her3-Fc EET I-II 66]” showed a S/N (Her3-Fc) of 27.8 and an ELISA (Her3-Fc) of 1.59.
Molecule “GCPRILIRCKQDSDCLAGCVCSGPPPCG (also: bicyclic or more (positions not given here)) [Her3-Fc EET I-II 47]” has a S/N (Her3-Fc) of 22.4 and an ELISA (Her3-Fc) of 1.64.
For “GCPRILKRCKRDSDCLAGCVCRGNGFCG (also: bicyclic or more (positions not given here)) [EETI-mut]”, the “phage binding to immobilized trypsin” value (trypsin) was “significantly disrupted”.
Work on “GCPRILMRCKQDSDCLAGCVCAGPPPCG (also: bicyclic or more (positions not given here)) [Her3-Fc EET I-II 42]” yielded a S/N (Her3-Fc) of 23.8 and an ELISA (Her3-Fc) of 1.52.
Work on “GCPRILMRCKQDSDCLAGCVCSGPPPCG (also: bicyclic or more (positions not given here)) [Her3-Fc EET I-II 7]” yielded a S/N (Her3-Fc) of 24.5 and an ELISA (Her3-Fc) of 1.60.
Molecule “GCPRILMRCKQDSDCLSGCVCSGPPPCG (also: bicyclic or more (positions not given here)) [Her3-Fc EET I-II 24]” has a S/N (Her3-Fc) of 16.6 and an ELISA (Her3-Fc) of 1.61.
With “GCQLHYSQQGCKQYSULSGLVLWYTIHRLLRWRI [Her3-Fc EET I-II 4]” the S/N (Her3-Fc) was 21.1 and the ELISA (Her3-Fc) was 1.45.
“GCQSHYSHQGCKQDSDCLAGYCG [Her3-Fc EET I-II 11]” showed a S/N (Her3-Fc) of 26.1 and an ELISA (Her3-Fc) of 1.65.
With “GCQWDWWMEEWWCKQDSDCLAGCVCGPNGFCG (also: bicyclic or more (positions not given here)) [HGFA EET I-II 14]” the S/N (HGFA) was 15.2 and the ELISA (HGFA) was 1.75.
“GCQWIAHWWLWDCKQDSDCLAGCVCGPNGFCG (also: bicyclic or more (positions not given here)) [HGFA EET I-II 86]” showed a S/N (HGFA) of 22.6 and an ELISA (HGFA) of 1.92.
“GCWSSEKGLACKQDSDCLAGCVCDQTGSCG (also: bicyclic or more (positions not given here)) [Her3-Fc EET I-II 52]” was tested, and the S/N (Her3-Fc) was 23.0 and the ELISA (Her3-Fc) was 1.65.
“GCYQKRVQCKQDSDCLAGCVCGWEAQCG (disulfide (positions not given here)) [CD28-Fc EET I-II 10]” was tested, and the ELISA (CD28-Fc) was 1.41 and the S/N (CD28-Fc) was 15.0.
With “GCYTFWHKCKQDSDCLAGCVCLIWGRCG (disulfide (positions not given here)) [CD28-Fc EET I-II 11]” the ELISA (CD28-Fc) was 1.50 and the S/N (CD28-Fc) was 19.0.
Work on “GCYWDSWFDEWVCKQDSDCLAGCVCGPNGFCG (also: bicyclic or more (positions not given here)) [HGFA EET I-II 59]” yielded a S/N (HGFA) of 13.4 and an ELISA (HGFA) of 1.67.
Molecule “GCYWKRQFKCKQDSYCLPGCVCGWEMSCG (disulfide (positions not given here)) [CD28-Fc EET I-II 16]” has an ELISA (CD28-Fc) of 1.80 and a S/N (CD28-Fc) of 8.4.
With “GLPVCGETCVGGTCNTPGCTCSWPVCTRN (also: bicyclic or more (positions not given here)) [kalata B1]” the “phage binding to immobilized trypsin” value (trypsin) was “did not exhibit any binding signal”.
For “GPSHSQYCHCGGIGYVGGHYCSCTNYQDEWGFESRCLPGAS [HGFA CBD 9]”, the S/N (HGFA) was 25.0 and the ELISA (HGFA) was 1.80.
“GPTQSFWGWCGGIGYVGGRYCSGTTCQRPDAHWSQCLPGAS (disulfide 10-26, 21-36 (inferred)) [HtrA1_CBDamy86]” gave a Kd (HtrA1 FL) of 158 µM and a S/N (HtrA1) of 22.8.
“GPTQSWQGRCGGIGYSGPTVCASGTTCQVLTPYWSECLPGAS (disulfide 10-27, 21-37 (inferred)) [Her3-Fc_CBD1]” showed a S/N (Her3-Fc) of 20.2 and an ELISA (Her3-Fc; listed as Her3-Fc CBD 3) of 1.65.
With “SGSDGGVCPKILKKCRRDSDCPGACICRGNGYCG (also: bicyclic or more (positions not given here)) [MCoTI-II]” the “phage binding to immobilized trypsin” value (trypsin) was “showed binding signals”.
